According to PubChem BioAssay (NCI):
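96-well plates; 48 h exposure; 5 concentrations. Endpoints by linear interpolation between flanking doses. Not reached: highest tested concentration assigned. At the GI50, growth is halved. At the TGI there is no net growth.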

Experiments:
Assay in all cases: DTP human tumour cell line panel, 48 h
A549 NSCLC = system: A549 NSCLC
COLO 205 colon = system: COLO 205 colon
K-562 leukemia = system: K-562 leukemia
M14 melanoma = system: M14 melanoma
NCI-H522 lung = system: NCI-H522 lung
NCI/ADR-RES ovarian = system: NCI/ADR-RES ovarian
SK-MEL-28 melanoma = system: SK-MEL-28 melanoma
SK-OV-3 ovarian = system: SK-OV-3 ovarian
SR leukemia = system: SR leukemia
MCF7 breast = system: MCF7 breast

`C=C(C)[C@@H]1CCC2=C(CC[C@]3(C)[C@@H]([C@@H](CCC=C(C)C)C(=O)O)[C@H](O)C[C@@]23C)[C@@]1(C)CCC(=O)O` showed a TGI (A549 NSCLC) of over 100 µM, a TGI (COLO 205 colon) of over 100 µM and a TGI (K-562 leukemia) of over 100 µM. The TGI (M14 melanoma) was over 100 µM, the TGI (NCI-H522 lung) was over 100 µM and the TGI (NCI/ADR-RES ovarian) was over 100 µM. For the same compound, the TGI (SK-MEL-28 melanoma) was over 100 µM, the TGI (SK-OV-3 ovarian) was over 100 µM and the TGI (SR leukemia) was over 100 µM.

`COc1cc2c(cc1OC)-c1[nH]c3ccc([N+](=O)[O-])cc3c1CC(=O)N2` gave a TGI (A549 NSCLC) of over 100 µM, a TGI (COLO 205 colon) of 0.811 µM and a TGI (K-562 leukemia) of over 100 µM. For the same compound, the TGI (M14 melanoma) was over 100 µM, the TGI (MCF7 breast) was 34.9 µM and the TGI (NCI/ADR-RES ovarian) was over 100 µM. For the same compound, the TGI (SK-MEL-28 melanoma) was over 100 µM and the TGI (SK-OV-3 ovarian) was over 29.8 µM.

`Brc1ccc(C[N+]23CN4CN(CN(C4)C2)C3)cc1` was tested, and the TGI (A549 NSCLC) was over 100 µM, the TGI (COLO 205 colon) was 69.4 µM and the TGI (K-562 leukemia) was over 100 µM. The TGI (M14 melanoma) was 33 µM, the TGI (NCI-H522 lung) was 32.1 µM and the TGI (SK-MEL-28 melanoma) was over 100 µM. It also gave a TGI (SK-OV-3 ovarian) of over 100 µM.

In the case of `COc1cc(O)c2c(=O)c(OC)c(-c3ccc(OC)c(OC)c3)oc2c1.[Sn]`, the TGI (A549 NSCLC) is reported as over 100 µM, the TGI (COLO 205 colon) is reported as over 100 µM and the GI50 (K-562 leukemia) is reported as over 100 µM. For the same compound, the TGI (K-562 leukemia) was over 100 µM, the GI50 (M14 melanoma) was over 100 µM and the TGI (M14 melanoma) was over 100 µM. For the same compound, the GI50 (MCF7 breast) was over 100 µM, the TGI (MCF7 breast) was over 100 µM and the TGI (NCI-H522 lung) was over 100 µM. For the same compound, the GI50 (NCI/ADR-RES ovarian) was over 100 µM, the TGI (NCI/ADR-RES ovarian) was over 100 µM and the GI50 (SK-MEL-28 melanoma) was over 100 µM. It also gave a TGI (SK-MEL-28 melanoma) of over 100 µM and a TGI (SK-OV-3 ovarian) of over 100 µM.

With `Cc1cc(N)c2cc(NC(=O)Nc3ccc4nc(C)cc(N)c4c3)ccc2n1` the TGI (A549 NSCLC) was over 100 µM, the TGI (COLO 205 colon) was over 100 µM and the TGI (K-562 leukemia) was over 100 µM. The TGI (M14 melanoma) was over 100 µM, the TGI (MCF7 breast) was over 100 µM and the TGI (NCI-H522 lung) was over 100 µM. For the same compound, the TGI (NCI/ADR-RES ovarian) was over 100 µM, the TGI (SK-MEL-28 melanoma) was over 100 µM and the TGI (SK-OV-3 ovarian) was over 100 µM.

Compound `CCOC(=O)C1=C(O)c2ccc(OC)cc2C(=O)C1=O` has a TGI (A549 NSCLC) of over 100 µM, a TGI (COLO 205 colon) of over 100 µM and a TGI (K-562 leukemia) of over 100 µM. For the same compound, the TGI (M14 melanoma) was over 100 µM, the TGI (NCI-H522 lung) was over 100 µM and the TGI (SK-MEL-28 melanoma) was over 100 µM. For the same compound, the TGI (SK-OV-3 ovarian) was over 100 µM and the TGI (SR leukemia) was over 100 µM.

`COc1cc(C(=O)N(C(=O)N2CCCCC2)c2ccccc2)cc(OC)c1OC` gave a TGI (A549 NSCLC) of over 100 µM, a TGI (COLO 205 colon) of over 100 µM and a TGI (K-562 leukemia) of over 100 µM. The TGI (M14 melanoma) was over 100 µM, the TGI (MCF7 breast) was over 100 µM and the TGI (NCI/ADR-RES ovarian) was over 100 µM. It also gave a TGI (SK-MEL-28 melanoma) of over 100 µM, a TGI (SK-OV-3 ovarian) of over 100 µM and a TGI (SR leukemia) of over 100 µM.

Work on `O=C(c1cccnc1)N1N=C(c2ccc3c(c2)OCO3)CC1(O)c1cc(F)c(Cl)cc1Cl` (stereo not given) yielded a TGI (A549 NSCLC) of over 100 µM, a TGI (COLO 205 colon) of 31.2 µM and a TGI (K-562 leukemia) of over 100 µM. It also gave a TGI (M14 melanoma) of over 100 µM, a TGI (NCI-H522 lung) of 33.8 µM and a TGI (NCI/ADR-RES ovarian) of 50.4 µM. It also gave a TGI (SK-MEL-28 melanoma) of 77.5 µM, a TGI (SK-OV-3 ovarian) of over 100 µM and a TGI (SR leukemia) of 76.4 µM.

Compound `CC(=O)Nc1ccc(C(=O)n2[nH]c(C)c(/C=C3\C(=O)C=Cc4ccccc43)c2=O)cc1` has a TGI (A549 NSCLC) of over 100 µM, a TGI (COLO 205 colon) of over 100 µM and a TGI (K-562 leukemia) of over 100 µM. It also gave a TGI (M14 melanoma) of over 100 µM, a TGI (NCI-H522 lung) of over 100 µM and a TGI (SK-MEL-28 melanoma) of over 100 µM. For the same compound, the TGI (SR leukemia) was over 100 µM.

For `O=C1C(=O)N(C23CC4CC(CC(C4)C2)C3)C(=S)N1c1ccccc1`, the TGI (A549 NSCLC) was over 100 µM, the TGI (COLO 205 colon) was over 100 µM and the TGI (K-562 leukemia) was over 100 µM. For the same compound, the TGI (NCI-H522 lung) was over 100 µM, the TGI (NCI/ADR-RES ovarian) was over 100 µM and the TGI (SK-MEL-28 melanoma) was over 100 µM. For the same compound, the TGI (SK-OV-3 ovarian) was over 100 µM and the TGI (SR leukemia) was over 100 µM.

In the case of `COc1cc(/C=C/c2ccc(S(N)(=O)=O)cc2)cc(OC)c1`, the GI50 (A549 NSCLC) is reported as 20.7 µM, the TGI (A549 NSCLC) is reported as 71.9 µM and the TGI (COLO 205 colon) is reported as 32.4 µM. It also gave a GI50 (K-562 leukemia) of 28.7 µM, a TGI (K-562 leukemia) of 76.7 µM and a TGI (M14 melanoma) of over 100 µM. For the same compound, the TGI (MCF7 breast) was 75.1 µM, the TGI (NCI/ADR-RES ovarian) was 89.7 µM and the TGI (SK-MEL-28 melanoma) was 56.8 µM. The TGI (SK-OV-3 ovarian) was 75.7 µM, the GI50 (SR leukemia) was 19.7 µM and the TGI (SR leukemia) was 38 µM.
